In patent publication US20240182444A1, “ANTI-VIRAL COMPOUNDS” (Aligos Therapeutics, Inc., priority 2022, published 2024):
Like-named read-outs stand apart in the source and are kept apart here.

Assays:
in vitro = conditions: human
[1] = Cytotoxicity in HeLa cells without OC43 virus; type: cell-based; conditions: human, HeLa cells (uninfected), in parallel
Method: (§1) The human beta-coronavirus OC43 was purchased from ATCC (Manassas, VA) and propagated using HCT-8 human colorectal epithelial cells (ATCC). HeLa human cervical epithelial cells (ATCC) were used as susceptible host cell lines and were cultured using EMEM media, supplemented with 10% fetal bovine serum (FBS), 1% (v/v) penicillin/streptomycin (P/S), 1% (v/v) HEPES and 1% (v/v) cellgro Glutagro™ supplement (all Corning, Manassas, VA) at 37° C. For the OC43 antiviral assay, 1.5×10^4 HeLa cells per well were plated in 100 μL complete media in white 96-well plates with clear bottoms at 37° C. for up to 24 h to facilitate attachment and allow cells to recover from seeding stresses. Next day, the cell culture medium was removed. Serially diluted compounds in 100 μL assay media (EMEM, 2% FBS, 1% P/S, 1% cellgro Glutagro™ supplement, 1% HEPES) were added to the cells and incubated for 4 h at 37° C. in a humidified 5% CO2 incubator. 100 μL of OC43 virus stock was diluted to a concentration known to produce optimal cytopathic effect, inducing 80-90% reduction in cell viability. 96-well plates were incubated for 6 days at 33° C.; each plate contains uninfected control wells as well as virus-infected wells that were not treated with compound. Cytotoxicity plates without the addition of OC43 virus were carried out in parallel. At the end of the incubation period, 100 μL cell culture supernatant was replaced with 100 μL cell-titer-glo reagent (Promega, Madison, WI) and incubated for at least 10 min at rt prior to measuring luminescence. Luminescence was measured on a Perkin Elmer (Waltham, MA) Envision plate reader. Antiviral % inhibition was calculated as follows: [(Compound treated cells infected sample)−(no compound infected control)]/[(Uninfected control)−(no compound infected control)]*100; Using GraphPad (San Diego, CA) prism software version 8.3.1, the antiviral dose-response plot was generated as a sigmoidal fit, log(inhibitor) vs response-variable slope (four parameters) model and the EC50 was calculated which is the predicted compound concentration corresponding to a 50% inhibition of the viral cytopathic effect.
(§2) Table 2 indicates related EC50 and CC50 values for the tested compounds ‘A’ indicates an EC50<100 nM, ‘B’ indicates an EC50 of ≥100 nM and <1000 nM, ‘C’ indicates an EC50≥1000 nM and <10000 nM and ‘D’ indicates an EC50≥10000 nM and <100000 nM. For CC50, the values are reported in micromolar (M), ‘A’ indicates a CC50≥10000 nM and ‘B’ indicates a CC50≥1 μM and <10 μM.

[2] = test system: human beta-coronavirus OC43; assay: OC43 coronavirus antiviral assay in HeLa cells; type: cell-based; conditions: Betacoronavirus 1, 144 h, OC43, 6 days at 33° C., cell-titer-glo
Method: as §1, §2

SARS-Cov-2 3CLpro = molecular target: T1, SARS-Cov-2 3CLpro (Severe acute respiratory syndrome coronavirus 2, UniProt P0DTD1); assay: SARS-Cov-2 3CLpro protease assay (SAMDI-MS); type: biochemical
T1 construct: 3CLpro was added using a Multidrop Combi

human cathepsin L = molecular target: T2, human cathepsin L (Homo sapiens, UniProt P07711); assay: Cathepsin L assay; type: biochemical; conditions: 10 pM human cathepsin L, Z-FR-AMC 2 μM
T2 construct: purchased R&D Systems
Method: For the cathepsin L assay, 10 pM of human cathepsin L (R&D Systems; Minneapolis, MN) was preincubated for 30 mins with test compounds. Reactions were initiated by the addition of a peptide substrate Z-FR-AMC (final concentration 2 μM, Anaspec; Fremont, CA). Fluorescence was measured at 2-minute intervals for 30 mins using a 355/460 excitation/emission filter module on an Envision plate reader (Perkin Elmer; Waltham, MA). The IC50 values were calculated for each assay by fitting the curves using a four-parameter equation in GraphPad Prism.
Table 4 indicates related IC50 values for the tested compounds where ‘A’ indicates an IC50≥10000 nM, ‘B’ indicates an IC50 of ≥1000 nM and <10000 nM, ‘C’ indicates an IC50; ≥100 nM and <1000 nM, ‘D’ indicates an IC50<100 nM.

[3] = test system: SARS-CoV-2 B.1.1.7 lineage; assay: microbe, parasite or virus in culture; type: cell-based; conditions: Severe acute respiratory syndrome coronavirus 2, 96 h; read-out: A549-dual_ACE2_TMPRSS2 (EC50)
SARS-CoV-2 [4] = conditions: VeroE6, A549-ACE2 and/or HeLa-ACE2; cited from earlier work
SARS-CoV-2 [5] = conditions: A549-ACE2 expressing TMPRSS2; cited from earlier work
3Clpro = 3Clpro (Severe acute respiratory syndrome coronavirus 2, UniProt P0DTD1); conditions: cited from earlier work
[6] = 30 mins preincubation, duplex peptide substrates, read-out: SARS-Cov-2 (3CLpro IC50)

T2 sequence (P07711 114-333): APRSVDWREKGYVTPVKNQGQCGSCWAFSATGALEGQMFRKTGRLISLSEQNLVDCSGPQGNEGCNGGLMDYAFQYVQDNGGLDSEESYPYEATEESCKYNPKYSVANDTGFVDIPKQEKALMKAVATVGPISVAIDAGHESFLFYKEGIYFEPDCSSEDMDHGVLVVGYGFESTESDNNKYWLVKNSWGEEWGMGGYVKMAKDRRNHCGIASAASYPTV

Row | Compound | CC50 (in vitro) [nM] | CC50 at 6 days [1] [nM] | EC50 [2] [nM] | IC50 (SARS-Cov-2 3CLpro; [6]) [nM] | IC50 (human cathepsin L) [nM] | EC50 [3] [nM] | IC50 (SARS-Cov-2 3CLpro; bound given in table footnote, read-out: SARS-Cov-2 activity (footnote of Table 1)) [nM] | inhibition of SARS-CoV-2 (SARS-CoV-2 [4]) | antiviral effect when TMPRSS2 was expressed (SARS-CoV-2 [5]) | inhibitory effect on the 3Clpro (3Clpro)
1 | CC(C)(C)[C@H](NC(=O)C(F)(F)F)C(=O)N1C[C@H]2[C@@H]([C@H]1C(=O)NC(C#N)c1cncc3ccccc13)[C@H]1C=C[C@@H]2C1 (stereo partly drawn) [Compound 1, (1S,3aR,4S,7R,7aS)—N-(cyano(isoquinolin-4-yl)methyl)-2-((S)-3,3-dimethyl-2-(2,2,2-trifluoroacetamido)butanoyl)-2,3,3a,4,7,7a-hexahydro-1H-4,7-methanoisoindole-1-carboxamide] | > 1000 | ≥ 10000 | < 100 | < 20 | ≥ 10000 | < 100 |  |  |  | 
2 | CC(C)(C)[C@H](NC(=O)C(F)(F)F)C(=O)N1C[C@H]2[C@@H]([C@H]1C(=O)NC(C#N)c1cnc3ccccn13)[C@H]1C=C[C@@H]2C1 (stereo partly drawn) [Compound 2, (1S,3aR,4S,7R,7aS)—N-(cyano(imidazo[1,2-a]pyridin-3-yl)methyl)-2-((S)-3,3-dimethyl-2-(2,2,2-trifluoroacetamido)butanoyl)-2,3,3a,4,7,7a-hexahydro-1H-4,7-methanoisoindole-1-carboxamide] | > 1000 | ≥ 10000 | 100 to 1000 | < 20 | ≥ 10000 | 100 to 1000 |  |  |  | 
3 | CC(C)(C)[C@H](NC(=O)C(F)(F)F)C(=O)N1C[C@H]2[C@@H]([C@H]1C(=O)NC(C#N)c1cccnc1)[C@H]1C=C[C@@H]2C1 (stereo partly drawn) [Compound 3, (1R,2S,3S,6R,7S)—N-[cyano(pyridin-3-yl)methyl]-4-[(2S)-3,3-dimethyl-2-(2,2,2-trifluoroacetamido)butanoyl]-4-azatricyclo[5.2.1.0^{2,6}]dec-8-ene-3-carboxamide] | > 1000 | ≥ 10000 | 100 to 1000 | < 20 | ≥ 10000 | 100 to 1000 |  |  |  | 
4 | COc1cccc2cncc([C@@H](C#N)NC(=O)[C@@H]3[C@@H]4[C@H](CN3C(=O)[C@@H](NC(=O)C(F)(F)F)C(C)(C)C)[C@H]3C[C@@H]4[C@H](F)C3)c12 [Compound 28] | > 1000 | ≥ 10000 | < 100 | < 20 |  | < 100 |  |  |  | 
5 | COc1cccc2cncc([C@H](C#N)NC(=O)[C@@H]3[C@@H]4[C@H](CN3C(=O)[C@@H](NC(=O)C(F)(F)F)C(C)(C)C)[C@H]3C[C@@H]4[C@H](F)C3)c12 [Compound 29] | > 1000 | ≥ 10000 | 100 to 1000 | 20 to 200 |  | < 100 |  |  |  | 
6 | COc1cccc2cncc(C(C#N)NC(=O)[C@@H]3[C@@H](c4ccccc4)CCN3C(=O)[C@@H](NC(=O)C(F)(F)F)C(C)(C)C)c12 (stereo partly drawn) [Compound 30] | > 1000 | ≥ 10000 | 1000 to 10000 | 20 to 200 |  | ≥ 1000 |  |  |  | 
7 | CC(C)(C)[C@H](NC(=O)C(F)(F)F)C(=O)N1C[C@@H]2[C@H]3C[C@@H]([C@@H]2[C@H]1C(=O)NC1(C#N)CCCc2ccncc21)[C@H](F)C3 (stereo partly drawn) [Compound 31] | > 1000 | ≥ 10000 | 1000 to 10000 | 2000 to 20000 |  | ≥ 1000 | > 2000 |  |  | 
8 | CN1CCN(C(=O)N[C@@H](Cc2ccccc2)C(=O)N[C@H](/C=C/S(=O)(=O)c2ccccc2)CCc2ccccc2)CC1 [Compound K117777] |  |  |  |  |  |  |  | potent inhibition | abolished | lacks an inhibitory effect
